The test system of the first experiment is Nrf2 (Keap1-NRF2 nuclear translocation). Nature of the experiment: U2OS translocation assay (PathHunter U2OS Keap1-NRF2 Nuclear Translocation Cell Line). Format: cell-based. The note with it: Homo sapiens, U2OS, 3 h, read-out: CELLULAR U2OS EC50 (nM), U2OS Keap1-NRF2 nuclear translocation cells, 3 h incubation, luminescence, normalized between 1% DMSO and 10 μM andrographolide. As to the method: EXAMPLE 84: U2OS—TRANSLOCATION ASSAY
U2OS cell have been stably transduced using MMLV-derived retroviral vector, to overexpress Nrf2-Enzyme Donor fusion protein, and Acceptor Enzyme in the nucleus (PathHunter® U2OS Keap1-NRF2 Nuclear Translocation Cell Line, Ref.93-0821C3, DiscoverX).
PathHunter U2OS cells were grown in Minimum Essential Medium (MEM) (Ref.30-2003, ATCC), 10% FBS (Ref.P30-193306, PanBiotech), 500 μg/ml Geneticine, 250 μg/ml hygromycine, 0.25 μg/ml puromycine (10131-027, 10687-010 and Ref.A1113802 respectively, Life Technologies).
The night before experiment, cells were harvested using Tryple Xpress (Ref.126905, Bibco) for 5 min at 37° C., resuspended in Opti-MEM™ (Ref.31985-047, Gibco), 1% FBS (Ref.P30-193306, PanBiotech) and then plated into 384 wells plates (Ref.6007680, Perkin Elmer) at the density of 7 500 cells/well in 20 μl. Cell are stored over night at 37° C., 5% CO2 until used. Compounds in 100% DMSO (0.315 μl/well) were resuspended in 20 μl MEM, 1% FBS, 3.4% DMSO. Compounds and andrographolide (10 μM final concentration; Ref.365645-500MG, Aldrich)) as positive control, were dispensed on cell, 5 μl /well, and then incubated for 3 h at 37° C. and 5% CO2. After incubation, Path hunter reagents were dispensed on cells (12 μl /well, Ref.93-0001, DiscoverX) and incubated for 60 min at room temperature in the dark.
Then, luminescence signal was measured using multimodal reader (Pherastar, BMG Labtech). Data were normalized between 1% DMSO (basal signal) and 10 μM andrographolide (positive signal) and analyzed using Activity Base software.
Broadly, the EC50 is the concentration giving half of the maximal effect. For the compound `Cc1ccc2cc1CN1Cc3cc(ccc3OS1(=O)=O)CNC(=O)CCn1nnc3c(C)c(ccc31)C2CC(=O)O` (racemic) [Example 69, [4,31-Dimethyl-19,27,27-trioxo-26-oxa-27λ^6-thia-1,14,15,16,20-pentaazahexacyclo[20.5.3.1^3,70.1^9,130.0^12,160.0^25,29]dotriaconta-3(32),4,6,9(31),10,12,14,22,24,29-decaen-8-yl]acetic acid], the EC50 was above 3160 nM.

With `Cc1ccc2cc1CN1Cc3cc(ccc3OS1(=O)=O)OCCCCn1nnc3c(C)c(cc(-c4ccccc4)c31)[C@@H]2CC(=O)O` (single isomer, unassigned) [Example 49], the concentration giving a half-maximal response (EC50) was 1620 nM.

Still in this experiment, the particulars now being: read-out: CELLULAR U2OS EC50; U2OS Keap1-NRF2 nuclear translocation cells, 3 h incubation, luminescence, normalized between 1% DMSO and 10 μM andrographolide.
Turning to `COc1cc2cc(c1C)CN1Cc3cc(ccc3OS1(=O)=O)OCCCCn1nnc3c(C)c(ccc31)C2CC(=O)O` (single isomer, unassigned) [Example 30a, [5-Methoxy-4,31-dimethyl-27,27-dioxo-21,26-dioxa-27λ^6-thia-1,14,15,16-tetraazahexacyclo[20.5.3.1^3,70.1^9,130.0^12,160.0^25,29]dotriaconta-3(32),4,6,9(31),10,12,14,22,24,29-decaen-8-yl]acetic acid], the EC50 was found to be 555 nM.

Regarding `COc1cc2cc(c1C)CN1Cc3cc(ccc3OS1(=O)=O)OCCCCn1nnc3c(C)c(ccc31)C2CC(=O)O` (single isomer, unassigned) [Example 30b, [5-Methoxy-4,31-dimethyl-27,27-dioxo-21,26-dioxa-27λ^6-thia-1,14,15,16-tetraazahexacyclo[20.5.3.1^3,70.1^9,130.0^12,160.0^25,29]dotriaconta-3(32),4,6,9(31),10,12,14,22,24,29-decaen-8-yl]acetic acid], the EC50 worked out at 2360 nM.

Regarding `Cc1ccc2cc1CN1Cc3cc(ccc3OS1(=O)=O)OCC1CCN(CC1)CCn1nnc3c(C)c(ccc31)C2CC(=O)O` (single isomer, unassigned) [Example 60a, [4,36-Dimethyl-30,30-dioxo-24,29-dioxa-30λ^6-thia-1,14,15,16,19-pentaazaheptacyclo[23.5.3.2^19,220.1^3,70.1^9,130.0^12,160.0^28,32]heptatriaconta-3(37),4,6,9(36),10,12,14,25,27,32-decaen-8-yl]acetic acid], the EC50 was determined as 265 nM.

On to `Cc1ccc2cc1CN1Cc3cc(ccc3OS1(=O)=O)OCC1CCN(CC1)CCn1nnc3c(C)c(ccc31)C2CC(=O)O` (single isomer, unassigned) [Example 60b, [4,36-Dimethyl-30,30-dioxo-24,29-dioxa-30λ^6-thia-1,14,15,16,19-pentaazaheptacyclo[23.5.3.2^19,220.1^3,70.1^9,130.0^12,160.0^28,32]heptatriaconta-3(37),4,6,9(36),10,12,14,25,27,32-decaen-8-yl]acetic acid], for which the EC50 is above 3160 nM.

In the case of `Cc1ccc2cc1CN1Cc3cc(ccc3OS1(=O)=O)OCc1ccccc1/C=C/n1nnc3c(C)c(ccc31)C2CC(=O)O` (single isomer, unassigned) [Example 61a, [(17E)-4,36-dimethyl-32,32-dioxo-26,31-dioxa-32λ^6-thia-1,14,15,16-tetraazaheptacyclo[25.5.3.1^3,70.1^9,130.0^12,160.0^19,240.0^30,34]heptatriaconta-3(37),4,6,9(36),10,12,14,17,19,21,23,27,29,34-tetradecaen-8-yl]acetic acid], the EC50 was determined as 717 nM.

Regarding `Cc1ccc2cc1CN1Cc3cc(ccc3OS1(=O)=O)OCc1ccccc1/C=C/n1nnc3c(C)c(ccc31)C2CC(=O)O` (single isomer, unassigned) [Example 61b, [(17E)-4,36-dimethyl-32,32-dioxo-26,31-dioxa-32λ^6-thia-1,14,15,16-tetraazaheptacyclo[25.5.3.1^3,70.1^9,130.0^12,160.0^19,240.0^30,34]heptatriaconta-3(37),4,6,9(36),10,12,14,17,19,21,23,27,29,34-tetradecaen-8-yl]acetic acid], the EC50 was above 3160 nM.

As to `Cc1ccc2cc1CN1Cc3cc(ccc3OS1(=O)=O)OCc1ccccc1SCCCn1nnc3c(C)c(ccc31)C2CC(=O)O` (single isomer, unassigned) [Example 67a, [4,38-Dimethyl-34,34-dioxo-28,33-dioxa-20,34λ^6-dithia-1,14,15,16-tetraazaheptacyclo[27.5.3.1^3,70.1^9,130.0^12,160.0^21,260.0^32,36]nonatriaconta-3(39),4,6,9(38),10,12,14,21,23,25,29,31,36-tridecaen-8-yl]acetic acid], the EC50 came to 554 nM.

For the compound `Cc1ccc2cc1CN1Cc3cc(ccc3OS1(=O)=O)OCc1ccccc1SCCCn1nnc3c(C)c(ccc31)C2CC(=O)O` (single isomer, unassigned) [Example 67b, [4,38-Dimethyl-34,34-dioxo-28,33-dioxa-20,34λ^6-dithia-1,14,15,16-tetraazaheptacyclo[27.5.3.1^3,70.1^9,130.0^12,160.0^21,260.0^32,36]nonatriaconta-3(39),4,6,9(38),10,12,14,21,23,25,29,31,36-tridecaen-8-yl]acetic acid], the EC50 is above 3160 nM.

As to `Cc1ccc2cc1CN1Cc3cc(ccc3OS1(=O)=O)Oc1ccccc1NCCn1nnc3c(C)c(ccc31)C2CC(=O)O` (single isomer, unassigned) [Example 70a, [4,36-Dimethyl-32,32-dioxo-26,31-dioxa-32λ^6-thia-1,14,15,16,19-pentaazaheptacyclo[25.5.3.1^3,70.1^9,130.0^12,160.0^20,250.0^30,34]heptatriaconta-3(37),4,6,9(36),10,12,14,20,22,24,27,29,34-tridecaen-8-yl]acetic acid], the EC50 came out at 306 nM.

As to `Cc1ccc2cc1CN1Cc3cc(ccc3OS1(=O)=O)Oc1ccccc1NCCn1nnc3c(C)c(ccc31)C2CC(=O)O` (single isomer, unassigned) [Example 70b, [4,36-Dimethyl-32,32-dioxo-26,31-dioxa-32λ^6-thia-1,14,15,16,19-pentaazaheptacyclo[25.5.3.1^3,70.1^9,130.0^12,160.0^20,250.0^30,34]heptatriaconta-3(37),4,6,9(36),10,12,14,20,22,24,27,29,34-tridecaen-8-yl]acetic acid], the EC50 is above 3160 nM.

On to `Cc1ccc2cc1CN1Cc3cc(ccc3OS1(=O)=O)OCCCCn1nnc3c(C)c(ccc31)C2C(C)(C)C(=O)O` (single isomer, unassigned) [Example 74a, 2-[4,31-Dimethyl-27,27-dioxo-21,26-dioxa-27λ^6-thia-1,14,15,16-tetraazahexacyclo[20.5.3.1^3,70.1^9,130.0^12,160.0^25,29]dotriaconta-3(32),4,6,9(31),10,12,14,22,24,29-decaen-8-yl]-2-methylpropanoic acid], for which the EC50 came to 6.11 nM.

Regarding `Cc1ccc2cc1CN1Cc3cc(ccc3OS1(=O)=O)OCCCCn1nnc3c(C)c(ccc31)C2C(C)(C)C(=O)O` (single isomer, unassigned) [Example 74b, 2-[4,31-Dimethyl-27,27-dioxo-21,26-dioxa-27λ^6-thia-1,14,15,16-tetraazahexacyclo[20.5.3.1^3,70.1^9,130.0^12,160.0^25,29]dotriaconta-3(32),4,6,9(31),10,12,14,22,24,29-decaen-8-yl]-2-methylpropanoic acid], the EC50 was determined as 756 nM.

As to `Cc1ccc2cc1CN1Cc3c(ccc(c3Cl)OCCOCCn3nnc4c(C)c(ccc43)C2CC(=O)O)OS1(=O)=O` (single isomer, unassigned) [Example 76a, [31-Chloro-4,32-dimethyl-28,28-dioxo-19,22,27-trioxa-28λ^6-thia-1,14,15,16-tetraazahexacyclo[21.5.3.1^3,70.1^9,130.0^12,160.0^26,30]tritriaconta-3(33),4,6,9(32),10,12,14,23,25,30-decaen-8-yl]acetic acid], the 50% effective concentration (EC50) is 7.5 nM.

`Cc1ccc2cc1CN1Cc3c(ccc(c3Cl)OCCOCCn3nnc4c(C)c(ccc43)C2CC(=O)O)OS1(=O)=O` (single isomer, unassigned) [Example 76b, [31-Chloro-4,32-dimethyl-28,28-dioxo-19,22,27-trioxa-28λ^6-thia-1,14,15,16-tetraazahexacyclo[21.5.3.1^3,70.1^9,130.0^12,160.0^26,30]tritriaconta-3(33),4,6,9(32),10,12,14,23,25,30-decaen-8-yl]acetic acid]: the EC50 came out at 26.2 nM.

Turning to `Cc1ccc2cc1CN1Cc3cc(ccc3OS1(=O)=O)OCCOCCn1nnc3c(C)c(ccc31)C2CC(=O)O` (single isomer, unassigned) [Example 78a, [4,32-Dimethyl-28,28-dioxo-19,22,27-trioxa-28λ^6-thia-1,14,15,16-tetraazahexacyclo[21.5.3.1^3,70.1^9,130.0^12,160.0^26,30]tritriaconta-3(33),4,6,9(32),10,12,14,23,25,30-decaen-8-yl]acetic acid], the EC50 is 69 nM.

The values are drawn from patent US12643912B2, “Macrocyclic compounds, a process for their preparation and pharmaceutical compositions containing them” (LES LABORATOIRES SERVIER, priority 2020, dated 2026).
